Assay results: ChEMBL document CHEMBL1157656, “Fragment-based deconstruction of Bcl-xL inhibitors” (J Med Chem, 2010)
Where a name gives a salt, the structure may show the parent alone. Each block holds one compound with its values, some of them ahead of it.

Experiments:
Bcl-2-like protein 1 [1] = target: T1, Bcl-2-like protein 1 (Homo sapiens, UniProt Q07817); experiment: Binding affinity to 6xHis-tagged human Bcl-xL
Bcl-2-like protein 1 [2] = target: T1, Bcl-2-like protein 1; experiment: Inhibition of Bcl-xL
Bcl-2-like protein 1 [3] = target: T1, Bcl-2-like protein 1; experiment: Inhibition of Bcl-xL expressed in Saccharomyces cerevisiae

T1 sequence (Q07817 whole entry): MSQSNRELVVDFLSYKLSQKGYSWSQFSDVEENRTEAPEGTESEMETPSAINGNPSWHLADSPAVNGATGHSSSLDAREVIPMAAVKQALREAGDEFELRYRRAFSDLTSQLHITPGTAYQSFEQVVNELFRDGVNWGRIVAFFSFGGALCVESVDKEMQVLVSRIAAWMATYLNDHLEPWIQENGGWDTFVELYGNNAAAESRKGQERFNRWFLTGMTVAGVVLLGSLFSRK

SMILES: Oc1ccccc1-c1ccccc1 [2-PHENYLPHENOL]
Kd (Bcl-2-like protein 1 [1]): 2.7 mM

SMILES: Cc1cc2c(C(C)C)c(O)c(O)c(C=O)c2c(O)c1-c1c(C)cc2c(C(C)C)c(O)c(O)c(C=O)c2c1O [GOSSYPOL]
IC50 (Bcl-2-like protein 1 [2]): 480 nM

IC50 (Bcl-2-like protein 1 [3]): 4.69 µM
SMILES: COC1=CC(c2cc3ccccc3[nH]2)=N/C1=C\c1[nH]c(C)cc1C [OBATOCLAX MESYLATE]
